Converted amounts (≈) assume the structure as drawn. Where two headings read alike, the source gives them in different places. Positions of bridges follow the written chain, without caps; N, C: chain ends. Non-standard residues stand in square brackets, D forms with d. Residues, ends and D or L forms follow the SMILES beside them. *: point of attachment. X1 = CC[C@H](C)CCCCC(=O)*; Dab = NCC[C@H](N)C(=O)O
Columns and labels:
[1] = test system: E. coli R1 core type (F470); format: cell-based, Escherichia coli; settings: Table 2, strain R1* (48 h), MHB, 37°C
Description: (§1) All strains used in this study are listed in Supplementary Table S1. E. coli strains WD101 and WD101ΔeptAΔarnD (WD101ΔΔ) were kindly provided by Professor M. Stephen Trent (University of Georgia, USA). E. coli strains DB wild type, DB L5, and DB L9 were kindly provided by Dr. Douglas Browning (University of Birmingham, UK). Single deletion strains for envelope mutants were obtained from the Keio-collection (Baba et al., [2006]). All strains were grown in non-cation adjusted Muller Hinton broth (MHB) (Sigma, Cat. No. 70192). BPP-PNA conjugates (Table 1) were obtained as described previously (Good et al., [2001]; Ghosal et al., [2013]; Hansen et al., [2016]).
Minimum inhibitory concentration (MIC) values were determined by broth microdilution according to standard protocols adapted to peptide-based antimicrobial compounds (Goltermann and Nielsen, [2020]). Briefly, 190 μl bacterial cell culture containing ≈10^5 cfu/ml was dispensed into a 96-well plate (Thermo Scientific, Nunc Cat. No. 260896, 96F straight w/lid) along with 10 μl PNA stock solution or antibiotic. […] The MIC was determined as the lowest concentration, which inhibited visible growth (OD < 0.1) in the wells. […] Experiments were performed in triplicates as a minimum.

E. coli K12 MG1655 = test: microbe, parasite or virus in culture; format: cell-based, Escherichia coli; settings: 37°C, 18 h; for MIC values: Table 3, strain MG1655
Description: as §1
(§2) Minimum inhibitory concentration (MIC) values were determined by broth microdilution according to standard protocols adapted to peptide-based antimicrobial compounds (Goltermann and Nielsen, [2020]). Briefly, 190 μl bacterial cell culture containing ≈10^5 cfu/ml was dispensed into a 96-well plate (Thermo Scientific, Nunc Cat. No. 260896, 96F straight w/lid) along with 10 μl PNA stock solution or antibiotic. The plate was incubated in a Tecan Genios plate reader at 37°C for 18 h, and OD was measured every 20 min at 595 nm. The MIC was determined as the lowest concentration, which inhibited visible growth (OD < 0.1) in the wells. […] Experiments were performed in triplicates as a minimum.

[2] = test system: E. coli R4 core type (F2513); format: cell-based, Escherichia coli; settings: Table 2; strain R4; MHB, 37°C, 18 h
Description: as §1, §2

[3] = test system: E. coli R3 core type (F653); format: cell-based, Escherichia coli; settings: Table 2; strain R3; MHB, 37°C, 18 h
Description: as §1, §2

[4] = test system: E. coli 123 ΔrfaG (ATCC25922 ΔrfaG); format: cell-based, Escherichia coli; settings: Table 2; strain 123 ΔrfaG; MHB, 37°C, 18 h
Description: as §1, §2

[5] = test system: E. coli R2 core type (F632); format: cell-based, Escherichia coli; settings: Table 2; strain R2; MHB, 37°C, 18 h
Description: as §1, §2

[6] = test system: E. coli 122 ΔrfaF (ATCC25922 ΔrfaF); format: cell-based, Escherichia coli; settings: Table 2; strain 122 ΔrfaF; MHB, 37°C, 18 h
Description: as §1, §2

E. coli WD101ΔΔ = format: cell-based, Escherichia coli; settings: Table 2; strain WD101ΔΔ; MHB, 37°C, 18 h
Description: as §1, §2

E. coli ATCC25922 = format: cell-based, Escherichia coli; settings: strain ATCC25922, MHB, 37°C, 18 h; for MIC values: Table 3
Description: as §1, §2

[7] = test system: E. coli WD101 (polymyxin-resistant pmrA^C); format: cell-based, Escherichia coli; settings: Table 2; strain WD101; MHB, 37°C, 18 h
Description: as §1, §2

[8] = test system: E. coli ATCC25922 ΔrfaC (120 ΔrfaC); test: MIC broth microdilution; format: cell-based, Escherichia coli; settings: for MIC values: Table 3, strain ATCC25922 ΔrfaC
Description: as §1, §2

[9] = test system: E. coli 121 ΔrfaE (ATCC25922 ΔrfaE); test: MIC broth microdilution; format: cell-based, Escherichia coli; settings: Table 2; strain 121 ΔrfaE; MHB, 37°C, 18 h
Description: as §1, §2

E. coli AS19 = test: MIC broth microdilution; format: cell-based, Escherichia coli; settings: Table 2; strain AS19; MHB, 37°C, 18 h
Description: as §1, §2

[10] = test system: E. coli inner core mutants (ΔrfaC, ΔrfaE, ΔrfaF, and ΔrfaG); test: MIC broth microdilution, inner core mutants as a group; format: cell-based, Escherichia coli; settings: all the inner core mutants as well as AS19
Description: as §2
Four inner core mutants (ΔrfaC, ΔrfaE, ΔrfaF, and ΔrfaG) with increasingly shortened LPS core (Figure 2A) were investigated. The deletions span the three heptosyl and glycosyltransferases rfaC, rfaF, and rfaG responsible for attaching heptose and glucose, respectively, to the growing LPS core, and rfaE required for the synthesis of the heptose precursor needed for LPS synthesis (Figure 2A). […] Furthermore, all strains were characterized with respect to hydrophobicity and accessible cell surface charge (Figure 2B, vide infra). […] It is known that the peptide portion of the conjugates can have a membrane disruptive effect at high concentrations (Eriksson et al., [2002]). […]

E. coli MG1655 ΔsbmA = test: MIC broth microdilution; format: cell-based, Escherichia coli; settings: Table 3; strain MG1655 ΔsbmA; MHB, 37°C, 18 h
Description: as §1, §2

[11] = HPLC analysis of BPP-PNA relative hydrophobicity; format: physicochemical; settings: chromatographic measure of hydrophobicity; RP18 column (150 ×3.9 mm DeltaPak, 5 μm); 0 to 40% buffer B (95% acetonitrile, 0.1% TFA) in 30 min; conjugates dissolved in water and mixed; recorded at 260 nm
Description: Hydrophobicity of the BPP-PNA conjugates was measured using reversed phase high-performance liquid chromatography (HPLC) on an RP18 column (150 ×3.9 mm DeltaPak, 5 μm; Waters Corporation, Milford, MA, USA). Briefly, all the BPP-PNA conjugates were dissolved in water and mixed. The mixture of BPP-PNA conjugates has been run on HPLC and recorded at 260 nm. The HPLC buffers used in this study are buffer A composed of 5% acetonitrile, 0.1% trifluoroacetic acid (TFA), and 95% H2O, and buffer B composed of 95% acetonitrile, 0.1% TFA, and 5% H2O; the gradient starts from 100% of buffer A, 0% of buffer B, and ends with 60% of buffer A, 40% of buffer B in 30 min. Hydrophobicity of the compound was directly correlated to the HPLC retention time of each conjugate.

[12] = Table 2, strain K12 MG1655, MHB

CC[C@H](C)CCCCC(=O)N[C@@H](CCN)C(=O)N[C@H](C(=O)N[C@@H](CCN)C(=O)N[C@H]1CCNC(=O)[C@H]([C@@H](C)O)NC(=O)[C@H](CCN)NC(=O)[C@H](CCN)NC(=O)[C@H](CC(C)C)NC(=O)[C@@H](CC(C)C)NC(=O)[C@H](CCN)NC1=O)[C@@H](C)O [Colistin] (X1-[Dab]T[Dab][Dab][Dab][dL]L[Dab][Dab]T; lactam 4-C (inferred); N-terminus assumed)
Minimum inhibitory concentration, Colistin [1]: 0.016 µg/mL (≈ 0.0137 µM) | Minimum inhibitory concentration, Colistin (E. coli K12 MG1655; [12]): 0.03 µg/mL (≈ 0.0257 µM) | Minimum inhibitory concentration, Colistin [2]: 0.03 µg/mL (≈ 0.0257 µM) | Minimum inhibitory concentration, Colistin [3]: 0.06 µg/mL (≈ 0.0513 µM) | Minimum inhibitory concentration, Colistin [4]: ≤ 0.016 µg/mL | Minimum inhibitory concentration, Colistin [5]: 0.03 µg/mL (≈ 0.0257 µM) | Minimum inhibitory concentration, Colistin [6]: 0.016 µg/mL (≈ 0.0137 µM) | Minimum inhibitory concentration, Colistin (E. coli WD101ΔΔ): ≤ 0.016 µg/mL | Minimum inhibitory concentration, Colistin (E. coli ATCC25922; Table 2): 0.06 µg/mL (≈ 0.0513 µM) | Minimum inhibitory concentration, Colistin [7]: 4 µg/mL (≈ 3.42 µM)

CCCCCCCCCCCCOS(=O)(=O)[O-].[Na+] [SDS, sodium dodecyl sulfate]
Minimum inhibitory concentration, SDS ([8]; Table 2, strain 120 ΔrfaC, MHB, 37°C, 18 h): ≤ 0.03% | Minimum inhibitory concentration, SDS [9]: ≤ 0.03% | Minimum inhibitory concentration, SDS (E. coli AS19): ≤ 0.03% | Minimum inhibitory concentration, SDS (E. coli K12 MG1655; [12]): 0.12% | MIC, SDS [10]: < 0.03% | Minimum inhibitory concentration, SDS [2]: ≤ 0.06% | Minimum inhibitory concentration, SDS [3]: >0.5% | Minimum inhibitory concentration, SDS [4]: ≤ 0.03% | Minimum inhibitory concentration, SDS [5]: >0.5% | Minimum inhibitory concentration, SDS [6]: ≤ 0.03% | Minimum inhibitory concentration, SDS (E. coli WD101ΔΔ): 0.12% | Minimum inhibitory concentration, SDS (E. coli ATCC25922; Table 2): 0.12% | Minimum inhibitory concentration, SDS [7]: 0.12%

-Cys- RAGLQFPVGRVHRLLRK-NH2 (BF2A) [PNA4030, anti acpP PNA conjugated to buforin 2a (BF2A) via Cys]
MIC values ([8]; MHB, 37°C, 18 h): <0.25 µM | MIC values (E. coli MG1655 ΔsbmA): 8 to 16 µM | MIC values (E. coli K12 MG1655; MHB): 1 µM | MIC values (E. coli ATCC25922): 0.5 µM

-Cys-GKPRPYSPRPTSHPRPIRV-NH2 (Drosocin) [PNA4128, anti acpP PNA conjugated to drosocin via Cys]
MIC values ([8]; MHB, 37°C, 18 h, listed as 4128): <0.06 µM | fold lower MIC in the ΔrfaC-mutant than the ATCC25922 control ([8]; ΔrfaC-mutant vs ATCC25922): more than 16 fold | MIC values (E. coli MG1655 ΔsbmA): 4 to 8 µM | MIC values (E. coli K12 MG1655; MHB): 0.5 to 1 µM | MIC values (E. coli ATCC25922; listed as 4128): 1 µM

-Cys-GKPRPYSPRPTSHPRPIRV-NH2 (Drosocin) [PNA4242, mm for PNA4128]
MIC values ([8]; MHB, 37°C, 18 h, listed as 4242): <1 µM | MIC values (E. coli ATCC25922; listed as 4242): >8 µM

-Cys-GKPRPYSPRPTSHPRPIRV-R-X-R-NH2 [PNA4448, anti acpP PNA conjugated to drosocin extended by R-X-R]
MIC values ([8]; MHB, 37°C, 18 h): <0.12 µM | MIC values (E. coli MG1655 ΔsbmA): 2 µM | MIC values (E. coli K12 MG1655; MHB): 1 to 2 µM | MIC values (E. coli ATCC25922): 2 µM

-Cys-RAGLQFPVGRVHRLLRK-NH2 (BF2A) [PNA4243, mm for PNA4030]
MIC values ([8]; MHB, 37°C, 18 h): <2 µM | MIC values (E. coli ATCC25922): >8 µM

-Cys-RAGLQFPVGRVHRLLRK-R-X-R-NH2 (BF2A) [PNA4449, anti acpP PNA conjugated to BF2A extended by R-X-R]
MIC values ([8]; MHB, 37°C, 18 h): <0.25 µM | MIC values (E. coli MG1655 ΔsbmA): >4 µM | MIC values (E. coli K12 MG1655; MHB): <0.5 µM | MIC values (E. coli ATCC25922): 1 µM

-Cys-VDKPPYLPRPRPPRRIYNR-NH2 (oncocin) [PNA4124, anti acpP PNA conjugated to oncocin via Cys]
MIC values ([8]; MHB, 37°C, 18 h, listed as 4124): 0.25 µM | MIC values (E. coli MG1655 ΔsbmA): >8 µM | MIC values (E. coli K12 MG1655; MHB): 8 µM | MIC values (E. coli ATCC25922; listed as 4124): >2 µM

-Cys-VDKPPYLPRPRPPRRIYNR-NH2 (oncocin) [PNA4700, mm for PNA4124]
MIC values ([8]; MHB, 37°C, 18 h, listed as 4700): 4 µM | MIC values (E. coli ATCC25922; listed as 4700): >8 µM

H-CTCATACTCT-NH2 [PNA2301, unconjugated anti acpP PNA, H-…-NH2]
Minimum inhibitory concentration (E. coli AS19): 2 µM | Minimum inhibitory concentration (E. coli K12 MG1655; Table 2, strain K12 MG1655, non-cation adjusted MHB, ≈10^5 cfu/ml, triplicates minimum): >32 µM | Minimum inhibitory concentration [2]: >16 µM | Minimum inhibitory concentration [3]: >16 µM | Minimum inhibitory concentration [4]: >16 µM | Minimum inhibitory concentration [6]: >4 µM | Minimum inhibitory concentration (E. coli ATCC25922; Table 2): >16 µM | HPLC retention time (RT) [11]: 14 min
